The supplement of paper PMC10307832

Columns and labels:
Test in all cases: relative viability (nuclei count vs DMSO), 5 days (fraction); higher = more cells survive
[1] = compound: C1=CC=C2C(=C1)N=C(S2)C(C#N)C3=NC(=NC=C3)NCCC4=CN=CC=C4 + CC(=O)c1c(C)c2cnc(Nc3ccc(N4CCNCC4)cn3)nc2n(C2CCCC2)c1=O [Palbociclib] (partner 0.5 µM)
Method in brief: (§1)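 Lung cancer cell lines in 1536-well plates were dosed by pin tool the day after seeding, either with one drug alone or with a fixed anchor-drug dose plus five library-drug doses (not always all listed) in √10 steps. After 5 days, cells were fixed and their nuclei stained in one step (final 0.05% Triton X-100, 1% formaldehyde, 1 ug/ml Hoechst), then counted on 4× images. Relative viability is the nuclei count in treated wells divided by that in vehicle wells. Values are medians of duplicate plates.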

[2] = compound: COc1cc(N2CCC(N3CCN(C)CC3)CC2)ccc1Nc1ncc(Cl)c(Nc2ccccc2S(=O)(=O)C(C)C)n1 [NVP-TAE684] + CC(C)C[C@H](NC(=O)[C@H](Cc1ccccc1)NC(=O)c1cnccn1)B(O)O [Bortezomib] (partner 0.002 µM)
Method in brief: as §1

[3] = compound: COc1cc(N2CCC(N3CCN(C)CC3)CC2)ccc1Nc1ncc(Cl)c(Nc2ccccc2S(=O)(=O)C(C)C)n1 [NVP-TAE684] + Cc1nc(Nc2ncc(C(=O)Nc3c(C)cccc3Cl)s2)cc(N2CCN(CCO)CC2)n1 [Dasatinib] (partner 0.075 µM)
Method in brief: as §1

[4] = compound: COc1cc2/c(=N/c3ccc(Br)cc3F)nc[nH]c2cc1OCC1CCN(C)CC1 [Vandetanib] + COc1cc2c(Oc3ccc(NC(=O)C4(C(=O)Nc5ccc(F)cc5)CC4)cc3F)ccnc2cc1OCCCN1CCOCC1 [Foretinib] (partner 0.25 µM)
Method in brief: as §1

Cell Line | relative viability ([1]; first compound 0.005 µM) | relative viability ([1]; first compound 0.01581 µM) | relative viability ([1]; first compound 0.05 µM) | relative viability ([1]; first compound 0.1581 µM) | relative viability ([1]; first compound 0.5 µM) | relative viability ([2]; first compound 0.2 µM) | relative viability ([2]; first compound 0.6325 µM) | relative viability ([2]; first compound 2 µM) | relative viability ([3]; first compound 0.2 µM) | relative viability ([3]; first compound 0.6325 µM) | relative viability ([3]; first compound 2 µM) | relative viability ([4]; first compound 0.02 µM) | relative viability ([4]; first compound 0.06325 µM) | relative viability ([4]; first compound 0.2 µM) | relative viability ([4]; first compound 0.6325 µM) | relative viability ([4]; first compound 2 µM)
NCI-H2009 | 0.223 | 0.168 | 0.215 | 0.229 | 0.206 | 0.977 | 0.897 | 0.645 | 0.207 | 0.157 | 0.172 | 1.26 | 1.14 | 0.197 | 1.27 | 1.22
NCI-H1395 | 0.616 |  | 0.524 | 0.726 | 0.601 |  |  |  | 0.408 | 0.387 | 0.317 | 0.969 | 1.02 | 1.02 | 0.972 | 0.998
NCI-H1650 | 0.318 | 0.272 | 0.336 | 0.395 | 0.175 | 0.194 | 0.183 | 0.173 | 0.378 | 0.19 | 0.137 | 1.28 | 0.693 | 0.224 | 0.753 | 0.641
NCI-H2085 | 0.428 | 0.465 | 0.415 | 0.472 | 0.471 | 0.95 | 0.926 | 0.955 | 0.187 | 0.16 | 0.162 | 0.935 | 0.852 | 0.351 | 0.993 | 0.836
NCI-H1666 | 0.64 | 0.654 | 0.632 | 0.631 | 0.657 | 0.849 | 0.71 | 0.4 | 0.813 | 0.708 | 0.46 | 0.908 | 0.947 | 0.439 | 0.93 | 0.786
NCI-H1993 | 0.651 | 0.64 | 0.699 | 0.708 | 0.694 |  | 1.09 | 0.806 | 0.499 | 0.548 | 0.581 | 0.836 | 0.78 | 0.557 | 0.788 | 0.64
NCI-H1792 | 0.473 | 0.732 | 0.622 | 0.995 | 0.474 | 0.779 | 0.967 | 0.819 | 0.623 | 0.76 | 0.25 |  |  |  |  | 
NCI-H1944 | 0.314 | 0.373 | 0.293 | 0.32 | 0.318 |  |  |  | 0.212 | 0.202 | 0.161 | 0.895 | 0.887 | 0.904 | 0.813 | 0.783
IA-LM |  |  |  |  |  | 0.679 | 0.563 | 0.583 |  |  |  | 1.32 | 0.981 | 1.11 | 1.33 | 1.12
NCI-H2342 | 0.481 | 0.513 | 0.52 | 0.501 | 0.557 |  |  |  | 0.297 | 0.277 | 0.292 | 1.08 | 1.01 | 1.14 | 1.17 | 0.923
NCI-H358 | 0.135 | 0.139 | 0.15 | 0.141 | 0.119 |  |  |  | 0.162 | 0.136 | 0.112 | 0.657 | 0.716 | 0.649 | 0.646 | 0.332
NCI-H2170 | 0.284 | 0.391 | 0.38 | 0.43 | 0.34 |  |  |  | 0.588 | 0.477 | 0.368 | 1.04 | 0.57 | 1.06 | 0.978 | 1.03
NCI-H522 | 0.95 | 0.958 | 0.96 | 0.917 | 1.09 |  |  |  | 1.09 | 0.983 | 0.737 |  |  |  |  | 
Calu-6 |  |  |  |  |  | 0.875 | 0.918 | 0.435 |  |  |  | 0.809 | 0.86 | 0.902 | 0.853 | 0.856
NCI-H1703 |  |  |  |  |  | 0.315 | 0.275 | 0.129 |  |  |  | 0.338 | 0.346 | 0.42 | 0.328 | 0.339
NCI-H1793 |  | 0.344 | 0.29 | 0.319 | 0.276 |  |  |  | 0.402 | 0.321 | 0.328 | 0.605 | 0.606 | 0.406 | 0.648 | 0.41
LK-2 | 0.619 | 0.914 | 0.555 | 0.801 | 0.715 |  |  |  | 0.236 | 0.243 | 0.185 | 1.19 | 1.16 | 0.88 | 1.22 | 1.08
SK-MES-1 | 0.311 | 0.292 | 0.315 | 0.334 | 0.288 |  |  |  | 0.317 | 0.159 | 0.242 | 0.986 | 0.802 | 1.01 | 0.83 | 0.665
NCI-H1623 |  |  |  |  |  |  |  |  | 0.514 | 0.502 | 0.439 | 0.913 | 0.829 | 0.8 | 0.827 | 0.764
NCI-H1563 |  |  |  |  |  |  | 0.755 | 0.725 | 0.443 | 0.423 | 0.382 | 0.959 | 0.96 | 0.885 | 0.806 | 0.866
EBC-1 |  |  |  |  |  | 0.515 | 0.544 | 0.341 |  |  |  | 0.0974 | 0.0982 | 0.108 | 0.0939 | 0.0987
NCI-H1648 |  | 0.294 |  | 0.331 | 0.281 |  |  |  |  |  |  |  |  |  |  | 
